Measured values reported in patent publication US8859756B2, “Stereoselective synthesis of phosphorus containing actives” (Gilead Pharmasset LLC, priority 2010, dated 2014).
Where two headings read alike, the source gives them in different places.

Experiments:
Format in all cases: cell-based
HCV RNA replication = experiment: HCV Inhibition Assay (replicon; RT-PCR or luciferase reporter readout); conditions: concentration for 90% inhibition of HCV replication, Clone A or ET-lunet replicon cells, 4 days
Description: Clone A or ET-lunet cells were seeded at a density of 1500 or 3000 cells per well in a 96-well plate, respectively. Test compounds serially diluted in culture medium without G418 were added to cells so that the final DMSO concentration was 0.5%. Plates were incubated at 37° C. in a 5% CO2 atmosphere for 4 days. Inhibition of HCV RNA replication was determined by real time PCR (RT-PCR) or by measuring the levels of luminescence expressed via the luciferase reporter gene encoded within the ET replicon. Briefly, for the RT-PCR assay, total RNA was extracted using the RNeasy-96 kit as recommended by the manufacturer (Qiagen, Valencia, Calif.), reversed transcribed into cDNA, and amplified using primer and probe mix for HCV 5′-NTR RNA and human ribosomal RNA (rRNA) in a one-step RT-PCR reaction as described previously (Stuyver, L. J. et al. Antiviral Chem. Chemother. (2006) 17, 79-87). A relative quantification method was used to determine the extent of inhibition. The threshold cycle (Ct) of rRNA was subtracted from the Ct of HCV RNA (ΔCt). The average ΔCt of the DMSO cell controls was then subtracted from the ΔCt of the compound treated sample (ΔΔCt). Percent inhibition was determined by using the following equation: %=(1−(2^−ΔΔC^t))×100. For the luciferase-based replicon assay, luminescence was measured by using a Victor3 plate reader (Perkin-Elmer, Boston, Mass.) following the addition of Bright-Glo reagent as recommended by the manufacturer (Promega, Madison, Wis.). Percent inhibition of HCV replication was determined by comparing the change in luminescence of the drug treated wells versus the DMSO cell controls. EC50 and EC90 values, the concentrations at which 50% and 90% inhibition were achieved, were determined using the GraphPad Prism software (San Diego, Calif.).

[1] = Cell Cytotoxicity Assays (MTS dye); conditions: human, 50% inhibition value, cell line not given; for CC50: 8 days
Description: (§1) Cell Cytotoxicity Assays.
(§2) Each compound (serially diluted from 100 μM) was added to Huh7 (2×10^3 cells/well), HepG2 (2×10^3 cells/well), BxPC3 (2×10^3 cells/well), or CEM (5×10^3 cells/well) cells and allowed to incubate for 8 days at 37° C. A medium only control was used to determine the minimum absorbance value […]. At the end of the growth period, MTS dye from the CellTiter 96 Aqueous One Solution Cell Proliferation Assay kit (Promega) was added to each well and the plate was incubated for an additional 2 hours. The absorbance at 490 nm was read with a Victor3 plate reader (Perkin Elmer) using the medium only control wells as blanks. The 50% inhibition value (CC50) was determined by comparing the absorbance in wells containing cells and test compound to untreated cell control wells.

[2] = tested on: Huh7, HepG2, BxPC3, or CEM cells; experiment: Cell Cytotoxicity Assays (MTS dye); conditions: 50% inhibition value, 8 days, cell line not given
Description: as §1, §2

[3] = Cytotoxicity, MTT Assay (table footnote a)
[4] = Hepatitis C virus, 96 h, read-out: EC90

SMILES | EC90 (HCV RNA replication; [4]) [nM] | CC50 [1] [nM] | also measured
CC(C)(CO)C(=O)SCCOP(=O)(NCc1ccccc1)OC[C@H]1O[C@@H](n2cnc3c(=O)[nH]c(N)nc32)[C@](C)(O)[C@@H]1O (single isomer, unassigned) [Compound 132a] | 300 |  | CC50 at 8 days [1]: > 20000 nM
COc1nc(N)nc2c1ncn2[C@@H]1O[C@H](COP(=O)(N[C@@H](C)C(=O)OCC(C)(C)C)Oc2cccc3ccccc23)[C@@H](O)[C@@]1(C)F (stereo partly drawn) [Compound 140, (2S)-neopentyl 2-(((((2R,3R,4R,5R)-5-(2-amino-6-methoxy-9H-purin-9-yl)-4-fluoro-3-hydroxy-4-methyltetrahydrofuran-2-yl)methoxy)(naphthalen-1-yloxy)phosphoryl)amino)propanoate] |  |  | EC90 (HCV RNA replication; Hepatitis C virus, 96 h): 3.5 nM; CC50 at 8 days [1]: > 20000 nM
CNC(=O)c1c(-c2ccc(F)cc2)oc2cc(N(CCO[P@@](=O)(N[C@@H](C)C(=O)OC(C)C)Oc3ccccc3)S(C)(=O)=O)c(C3CC3)cc12 [Compound 135, (S)-isopropyl 2-(((S)-(2-(N-(5-cyclopropyl-2-(4-fluorophenyl)-3-(methylcarbamoyl)benzofuran-6-yl)methylsulfonamido)ethoxy)(phenoxy)phosphoryl)amino)propanoate] | 81 | > 20000 | 
CC(C)OC(=O)[C@H](C)NP(=O)(OC[C@H]1O[C@@H](n2ccc(=O)[nH]c2=O)[C@](C)(F)[C@@H]1O)Oc1ccccc1 (stereo partly drawn) [Compound 110, (S)-2-{[(1R,4R,5R)-5-(2,4-Dioxo-3,4-dihydro-2H-pyrimidin-1-yl)-4-(R)-fluoro-3-hydroxy-4-methyl-tetrahydro-furan-2-ylmethoxy]-phenoxy-phosphorylamino}-propionic acid (S)-isopropyl ester] |  |  | EC90 (HCV RNA replication; read-out: EC90): 220 nM; CC50 [2]: > 20000 nM
COc1nc(N)nc2c1ncn2[C@@H]1O[C@H](COP(=O)(N[C@@H](C)C(=O)OCC(C)(C)C)Oc2cccc3ccccc23)[C@@H](O)[C@@]1(C)O (stereo partly drawn) [Compound 137, (2S)-neopentyl 2-(((((2R,3R,4R,5R)-5-(2-amino-6-methoxy-9H-purin-9-yl)-3,4-dihydroxy-4-methyltetrahydrofuran-2-yl)methoxy)(naphthalen-1-yloxy)phosphoryl)amino)propanoate] |  |  | EC90 (HCV RNA replication; Hepatitis C virus, 96 h): 1.7 nM; CC50 at 8 days [1]: > 1000 nM
CC(C)OC(=O)[C@H](C)N[P@](=O)(OC[C@H]1O[C@@H](n2cnc3c(=O)[nH]c(N)nc32)[C@](C)(O)[C@@H]1O)Oc1ccccc1 [Compound 134, (S)-isopropyl 2-(((S)-(((2R,3R,4R,5R)-5-(2-amino-6-oxo-1H-purin-9(6H)-yl)-3,4-dihydroxy-4-methyltetrahydrofuran-2-yl)methoxy)(phenoxy)phosphoryl)amino)propanoate] | 560 | > 20000 | 
CC(C)OC(=O)[C@H](C)N[P@](=O)(OC[C@H]1O[C@@H](n2ccc3c(N)ncnc32)[C@](C)(O)[C@@H]1O)Oc1ccccc1 [Compound 139, (S)-2-{(S)-[(2R,3R,4R,5R)-5-(4-amino-pyrrolo[2,3-d]pyrimidin-7-yl)-3,4-dihydroxy-4-methyl-tetrahydro-furan-2-ylmethoxy]-phenoxy-phosphorylamino}-propionic acid isopropyl ester] | 20 | > 10000 | 
COc1nc(N)nc2c1ncn2[C@@H]1O[C@H](COP(=O)(NCc2ccccc2)OCCSC(=O)C(C)(C)CO)[C@@H](O)[C@@]1(C)O (single isomer, unassigned) [Compound 131a] | 93 |  | CC50 at 8 days [1]: > 20000 nM
CNC(=O)c1c(-c2ccc(F)cc2)oc2cc(N(CCO)S(C)(=O)=O)c(C3CC3)cc12 [Compound 44, 5-cyclopropyl-2-(4-fluorophenyl)-6-[(2-hydroxyethyl)(methylsulfonyl)amino]-N-methyl-3-Benzofurancarboxamide, reference compound] | 20 |  | CC50 [3]: > 10000 nM
COc1nc(N)nc2c1ncn2[C@@H]1O[C@H](COP(=O)(N[C@@H](C)C(=O)OCC(C)(C)C)Oc2cccc3ccccc23)[C@@H](O)[C@@]1(C)O (stereo partly drawn) [Compound 137a, (S)-neopentyl 2-(((((2R,3R,4R,5R)-5-(2-amino-6-methoxy-9H-purin-9-yl)-3,4-dihydroxy-4-methyltetrahydrofuran-2-yl)methoxy)(naphthalen-1-yloxy)phosphoryl)amino)propanoate] | 3.7 | 930 | 
COc1nc(N)nc2c1ncn2[C@@H]1O[C@H](COP(=O)(NCc2ccccc2)OCCSC(=O)C(C)(C)CO)[C@@H](O)[C@@]1(C)O (single isomer, unassigned) [Compound 131b] |  |  | EC90 (HCV RNA replication; read-out: EC90): 186 nM; CC50 [2]: > 20000 nM
COc1nc(N)nc2c1ncn2[C@@H]1O[C@H](CO[P@@](=O)(N[C@@H](C)C(=O)OC(C)C)Oc2ccccc2)[C@@H](O)[C@@]1(C)F [Compound 117, SP-(2S)-isopropyl 2-(((((2R,3R,4R,5R)-5-(2-amino-6-methoxy-9H-purin-9-yl)-4-fluoro-3-hydroxy-4-methyltetrahydrofuran-2-yl)methoxy)(phenoxy)phosphoryl)amino)propanoate] | 130 | > 20000 | 
COc1nc(N)nc2c1ncn2[C@@H]1O[C@H](CO[P@@](=O)(N[C@@H](C)C(=O)OC(C)C)Oc2ccccc2)[C@@H](O)[C@@]1(C)O [Compound 133, (S)-isopropyl 2-(((S)-(((2R,3R,4R,5R)-5-(2-amino-6-methoxy-9H-purin-9-yl)-3,4-dihydroxy-4-methyltetrahydrofuran-2-yl)methoxy)(phenoxy)phosphoryl)amino)propanoate] | 78 | 4140 | 
CC(C)(CO)C(=O)SCCOP(=O)(NCc1ccccc1)OC[C@H]1O[C@@H](n2cnc3c(=O)[nH]c(N)nc32)[C@](C)(O)[C@@H]1O (single isomer, unassigned) [Compound 132b] |  |  | EC90 (HCV RNA replication; read-out: EC90): 350 nM; CC50 [2]: > 20000 nM
